Measured values taken from US9625458B2, “Biosensor” (priority 2002, dated 2017).
pKd: −log10 of the molar value.

How the values were obtained:
[1] = target: T1, E. coli arabinose binding protein C64A mutant (Escherichia coli, UniProt P02924, C87A); test: Arabinose affinity of unconjugated arabinose BP C64A
T1 construct: initiator methionine (N); Gly-Ser-Gly-(His)n or Gly-Ser-(His)n (n = 5, 6 or 10) (C); made in house; host or cells: E. coli BL21-DE3
Text: (§1) Molecular Cloning. […] All clones and mutations were confirmed by nucleotide sequencing.
(§2) Cysteine point mutations were introduced by the PCR overlap method (Ho et al., Gene 77:51-59, 1989). Mutant proteins typically expressed as well as the wild type protein. […] In the case of Fe(III) BP, all mutations were constructed in the E57D background. […] This permitted straightforward determination of Fe(III) affinity by direct titration with Fe(III) citrate at nanomolar concentrations of Fe(III) BP.
(§3) The effect on dissociation constants is determined not only by the attachment site, but also by the nature of the attached fluorophore, as illustrated for arabinose BP. Dissociation constants for arabinose of the five cysteine-substitution mutants (all with the C64A mutation), measured by tryptophan fluorescence, are 5.0 μM (F23C), 3.2 μM (L253C), 3.4 μM (D257C), 7.6 μM (L298C), and 1.6 μM (K301C).

[2] = target: T2, E. coli arabinose binding protein variant C64A/D257C (Escherichia coli, UniProt P02924, C87A/D280C); test: Arabinose affinity by tryptophan fluorescence
T2 construct: initiator methionine (N); Gly-Ser-Gly-(His)n or Gly-Ser-(His)n (n = 5, 6 or 10) (C); made in house; host or cells: E. coli BL21-DE3
Text: as §1, §2, §3

[3] = target: T3, E. coli arabinose binding protein variant C64A/F23C (Escherichia coli, UniProt P02924, C87A/F46C); test: Arabinose affinity by tryptophan fluorescence
T3 construct: initiator methionine (N); Gly-Ser-Gly-(His)n or Gly-Ser-(His)n (n = 5, 6 or 10) (C); made in house; host or cells: E. coli BL21-DE3
Text: as §1, §2, §3

[4] = target: T4, E. coli arabinose binding protein variant C64A/K301C (Escherichia coli, UniProt P02924, C87A/K324C); test: Arabinose affinity by tryptophan fluorescence
T4 construct: initiator methionine (N); Gly-Ser-Gly-(His)n or Gly-Ser-(His)n (n = 5, 6 or 10) (C); made in house; host or cells: E. coli BL21-DE3
Text: as §1, §2, §3

[5] = target: T5, E. coli arabinose binding protein variant C64A/L253C (Escherichia coli, UniProt P02924, C87A/L276C); test: Arabinose affinity by tryptophan fluorescence
T5 construct: initiator methionine (N); Gly-Ser-Gly-(His)n or Gly-Ser-(His)n (n = 5, 6 or 10) (C); made in house; host or cells: E. coli BL21-DE3
Text: as §1, §2, §3

[6] = target: T6, E. coli arabinose binding protein variant C64A/L298C (Escherichia coli, UniProt P02924, C87A/L321C); test: Arabinose affinity by tryptophan fluorescence
T6 construct: initiator methionine (N); Gly-Ser-Gly-(His)n or Gly-Ser-(His)n (n = 5, 6 or 10) (C); made in house; host or cells: E. coli BL21-DE3
Text: as §1, §2, §3

[7] = target: T7, E. coli arabinose binding protein variant C64A/D257C, fluorophore conjugate (Escherichia coli, UniProt P02924, C87A/D280C); test: Fluorimetric titration of fluorophore conjugates; settings: allosteric site
T7 construct: initiator methionine (N); Gly-Ser-Gly-(His)n or Gly-Ser-(His)n (n = 5, 6 or 10) (C); made in house; host or cells: E. coli BL21-DE3
Text: (§4) Molecular Cloning. […] Amplified products were cloned into one of the protein expression vectors pAED4 (Doering, “Functional and structural studies of a small f-actin binding domain” in Ph.D. thesis, Massachusetts Institute of Technology, 1992); pKK223-3 (Brosius & Holy, Proc. Natl. Acad. Sci. USA 81:6929-6933, 1984); or pET vectors (Studier et al., Meth. Enzymol. 185:60-89, 1990) (Novagen). N-terminal oligonucleotide primers were designed to clone only the processed periplasmic form, deleting the signal sequence. The C-terminal primer was designed to append the sequence Gly-Ser-Gly-(His)n or Gly-Ser-(His)n, where n=5, 6, or 10. Two tandem stop codons (TAATGA) follow the last His codon. […] Single amino acid substitutions were generated by overlapping PCR mutagenesis (Ho et al., Gene 77:51-59, 1989). All clones and mutations were confirmed by nucleotide sequencing. In the case of arabinose BP, the single cysteine in the wild type sequence was replaced by alanine to eliminate the possibility of reporter group conjugation to this thiol (Miller et al., J. Biol. Chem. 254:7521-7528, 1979). Additionally the sequence of Fe(III) BP was mutated by substitution of Glu57 with Asp to raise the Kd to a concentration range conveniently measured using Fe(III) citrate.
(§5) Fluorophore conjugation to cysteine-substituted bPBPs. Thiol-reactive fluorophores obtained from Molecular Probes (Eugene, Oreg.) were 5-iodoacetamidofluorescein (fluorescein); N-(1-pyrene) iodoacetamide (pyrene); N,N′-dimethyl-N-(iodoacetyl)-N′-(7-nitrobenz-2-oxa-1,3-diazol-4-yl)ethylenediamide (NBD); N-((2-(iodoacetoxy)ethyl)-N-methyl)amino-7-nitrobenz-2-oxa-1,3-diazole (NBDE); and 6-acryloyl-2-dimethylaminonaphthalene (acrylodan). The styryl and naphthyl dyes JPW4039, JPW4042, and JPW4045 (FIG. 3) were synthesized at the University of Connecticut. All fluorophore conjugation steps were typically carried out at room temperature. To protein at a concentration of 100 μM was added tris-(2-carboxyethyl)phosphine HCl to a five-fold molar excess to reduce intermolecular disulfide bonds. A thiol-reactive fluorophore (20 to 25 mM in acetonitrile or dimethyl sulfoxide) was added in small aliquots to a five-fold molar excess over protein. Conjugation proceeded in the dark at room temperature for 4 hours, or overnight at 4° C. Separation of protein from unreacted fluorophore was achieved by exhaustive dialysis or by size-exclusion chromatography. The efficiency of reporter group attachment was assessed by determination of unreacted thiol with Ellman's reagent (Ellman, Arch. Biochem. Biophys. 74:443-450, 1958) or by measuring the ratio of fluorophore to protein from absorbance spectra of the purified conjugate.
(§6) Fluorimetry. All measurements were conducted with an SLM Aminco-Bowman series 2 fluorimeter, with sample stirring at 25° C. Fluorescence emission spectra were acquired with excitation and emission slit widths of 4 and 8 nm, respectively. Photomultiplier tube potential was maintained between 400 and 800 volts. Protein concentrations were in the range of 50 to 1000 nM. Fluorophore-specific excitation was at the following approximate wavelengths: tryptophan, 290 nm; acrylodan, 390 nm; fluorescein, 485 nm; pyrene, 340 nm; NBD and NBDE, 490 nm; JPW4039, 485 nm; JPW4042, 470 nm; JPW4045, 470 nm.
(§7) Corrections were made for dilution of the protein and for background signal from buffer. Binding curves were fit to binding isotherms using equation 3 or 4, as appropriate.
(§8) Analyte affinity measurements. […] The emission wavelength monitored was that of maximum difference in intensity between the ligand-free and bound states. For each conjugate, fluorescence intensiometric observations were fit to a hyperbolic binding isotherm for a two-state model (Marvin et al., Proc. Natl. Acad. Sci. USA 94:4366-4371, 1997): […]

[8] = target: T8, E. coli arabinose binding protein variant C64A/F23C, fluorophore conjugate (Escherichia coli, UniProt P02924, C87A/F46C); test: Fluorimetric titration of fluorophore conjugates; settings: allosteric site
T8 construct: initiator methionine (N); Gly-Ser-Gly-(His)n or Gly-Ser-(His)n (n = 5, 6 or 10) (C); made in house; host or cells: E. coli BL21-DE3
Text: as §4, §5, §6, §7, §8

[9] = target: T9, E. coli arabinose binding protein variant C64A/K301C, fluorophore conjugate (Escherichia coli, UniProt P02924, C87A/K324C); test: Fluorimetric titration of fluorophore conjugates
T9 construct: initiator methionine (N); Gly-Ser-Gly-(His)n or Gly-Ser-(His)n (n = 5, 6 or 10) (C); made in house; host or cells: E. coli BL21-DE3
Text: as §4, §5, §6, §7, §8

[10] = target: T10, E. coli arabinose binding protein variant C64A/L253C, fluorophore conjugate (Escherichia coli, UniProt P02924, C87A/L276C); test: Fluorimetric titration of fluorophore conjugates
T10 construct: initiator methionine (N); Gly-Ser-Gly-(His)n or Gly-Ser-(His)n (n = 5, 6 or 10) (C); made in house; host or cells: E. coli BL21-DE3
Text: as §4, §5, §6, §7, §8

[11] = target: T11, E. coli arabinose binding protein variant C64A/L298C, fluorophore conjugate (Escherichia coli, UniProt P02924, C87A/L321C); test: Fluorimetric titration of fluorophore conjugates; settings: allosteric site
T11 construct: initiator methionine (N); Gly-Ser-Gly-(His)n or Gly-Ser-(His)n (n = 5, 6 or 10) (C); made in house; host or cells: E. coli BL21-DE3
Text: as §4, §5, §6, §7, §8

[12] = target: E. coli histidine binding protein (HBP, SEQ ID NO:2), fluorophore-conjugated cysteine mutants (Escherichia coli, UniProt P0AEU0); settings: read-out: range of Kd; range over conjugates, n=4
Text: Molecular Cloning. […] Amplified products were cloned into one of the protein expression vectors pAED4 (Doering, “Functional and structural studies of a small f-actin binding domain” in Ph.D. thesis, Massachusetts Institute of Technology, 1992); pKK223-3 (Brosius & Holy, Proc. Natl. Acad. Sci. USA 81:6929-6933, 1984); or pET vectors (Studier et al., Meth. Enzymol. 185:60-89, 1990) (Novagen). N-terminal oligonucleotide primers were designed to clone only the processed periplasmic form, deleting the signal sequence. The C-terminal primer was designed to append the sequence Gly-Ser-Gly-(His)n or Gly-Ser-(His)n, where n=5, 6, or 10. Two tandem stop codons (TAATGA) follow the last His codon. […] Additionally the sequence of Fe(III) BP was mutated by substitution of Glu57 with Asp to raise the Kd to a concentration range conveniently measured using Fe(III) citrate.
Fluorophore conjugation to cysteine-substituted bPBPs. […] The efficiency of reporter group attachment was assessed by determination of unreacted thiol with Ellman's reagent (Ellman, Arch. Biochem. Biophys. 74:443-450, 1958) or by measuring the ratio of fluorophore to protein from absorbance spectra of the purified conjugate.
Fluorimetry. […] Fluorescence emission spectra were acquired with excitation and emission slit widths of 4 and 8 nm, respectively. […]

[13] = target: E. coli histidine binding protein (SEQ ID NO:2) variant E167C, fluorophore conjugate (Escherichia coli, UniProt P0AEU0, E189C); test: biochemical
Text: as §4, §5
(§9) Fluorimetry. All measurements were conducted with an SLM Aminco-Bowman series 2 fluorimeter, with sample stirring at 25° C. Fluorescence emission spectra were acquired with excitation and emission slit widths of 4 and 8 nm, respectively. Photomultiplier tube potential was maintained between 400 and 800 volts. Protein concentrations were in the range of 50 to 1000 nM. […]
as §8

[14] = target: E. coli histidine binding protein (SEQ ID NO:2) variant V163C, fluorophore conjugate (Escherichia coli, UniProt P0AEU0, V185C); test: biochemical
Text: as §4, §5, §9, §8

[15] = Acrylodan conjugate, allosteric site
[16] = JPW4039 conjugate, allosteric site

`OC1OC[C@H](O)[C@H](O)[C@H]1O` (some centres unmarked) [arabinose] was tested, and the pKd [1] was about 5.66, the pKd [2] was 5.47 and the pKd [3] was 5.30. For the same compound, the pKd [4] was 5.80, the pKd [5] was 5.49 and the pKd [6] was 5.12. It also gave a pKd ([7]; Acrylodan conjugate) of 4.25, a pKd ([7]; Fluorescein conjugate) of 5.40 and a pKd ([7]; JPW4039 conjugate) of 4.05. It also gave a pKd ([7]; NBD conjugate) of 4.49, a pKd ([8]; Acrylodan conjugate) of 5.41 and a pKd ([8]; Fluorescein conjugate) of 5.49. The pKd ([8]; JPW4039 conjugate) was 4.42, the pKd ([8]; NBD conjugate) was 5.30 and the pKd [9, 15] was 6.34. For the same compound, the pKd ([9]; Fluorescein conjugate, allosteric site) was 4.62, the pKd [9, 16] was 4.11 and the pKd ([9]; K301C-NBD conjugate) was about 4.51. It also gave a pKd ([9]; NBD conjugate, allosteric site) of 4.51, a pKd [10, 15] of 6.16 and a pKd ([10]; Fluoresecin conjugate, allosteric site) of 4.32. The pKd [10, 16] was 3.78, the pKd ([10]; L253C-NBD conjugate) was 3.11 and the pKd ([10]; L253C-acrylodan conjugate) was 6.15. The pKd ([10]; L253C-fluorescein conjugate) was about 4.32, the pKd ([10]; NBD conjugate, allosteric site) was 3.11 and the pKd ([11]; Acrylodan conjugate) was 4.36. The pKd ([11]; JPW4039 conjugate) was 4.15 and the pKd ([11]; NBD conjugate) was 4.25.

For `N[C@@H](Cc1c[nH]cn1)C(=O)O` [histidine], the pKd [12] was 5.63 to 7.22, the pKd [13] was 7.22 and the pKd ([14]; Acrylodan conjugate, peristeric site) was 6.40. The pKd ([14]; JPW4042 conjugate, peristeric site) was 6.60, the pKd ([14]; NBD conjugate, peristeric site) was 5.63 and the pKd ([14]; V163C-JPW4042) was 6.60.
